How the values were obtained:
Format in all cases: cell-based
[1] = test system: Jatropha curcas calli from zygotic embryo explants; assay: Type II somatic embryo (TIISE) formation after shifting calli to hormone-free DGA medium; conditions: then DGA medium 6 weeks
Experimental: Yellowish or white calli were observed on the explants from 3rd week if subcultured in the same medium. Extensively tested variables for induction of somatic embryogenesis were media of numerous compositions. Combinations of MS salt, Gamborg B5 salts, MS vitamins, Gamborg B5 vitamins; presence or absence of NH4NO3; amount of KNO3 (1.9-3.8 g/l); organic nitrogen source, e.g., free amino acids, casein hydrolysate; trace amount of hormones, e.g., kinetin (0-1 mg/l), benzyl adenine (0-1 mg/l); choice of carbon sources, e.g., glucose, sucrose and maltose; and activated carbon (5 g/l). In a large number of media, the calli died within 1-2 weeks when shifted into a new medium. […] An example of the medium is DGA medium in which 1 g/l glutamine and 0.5 g/l asparagines was supplemented. A cluster of somatic embryos of various stages emerged around the 10th day after the medium shift to DGA (FIG. 2).
Somatic embryos formed in DGA medium underwent multiplication and maturation simultaneously. We called them Type II Somatic Embryos (TIISE). TIISEs were preferentially formed on explants previously cultured in media containing higher concentration of 2,4-D, for example, 2-5 mg/l during the first induction culture (Table 1).

[2] = test system: Jatropha curcas embryogenic calli; assay: Embryogenic liquid suspension culture; conditions: liquid medium
Experimental: FIGS. 5A-5D show embryogenic liquid suspension culture. About 50 mg embryogenic calli produced in solid DGA medium were inoculated in 20 ml modified DGA liquid media. Embryos larger than 2 mm were removed before inoculation. Subculture was done every two weeks. Photos were taken after 2 subcultures. FIG. 5A: 20 g/l sucrose, 1 g/l glutamine, 0.5 g/l asparagine, no 2,4-D. FIG. 5B: 20 g/l sucrose, 1 g/l glutamine, 0.5 g/l asparagine, 0.2 g/1 2,4-D. FIG. 5C: 30 g/l sucrose, 1 g/l glutamine, 0.5 g/l asparagine, 0.2 g/1 2,4-D. FIG. 5D: 20 g/l sucrose, 1 g/l glutamine, 0.5 g/l asparagine, 1 g/1 2,4-D. Arrow indicates the non-embryogenic ball-shaped calli. Scale bar represents 1 cm.
Liquid cultures were performed in 65 mm plastic cylinder containers or 250 ml glass conical flasks that were placed in shakers set at 80 rpm, 28° C. constant temperature and 16-8 hours day-light cycles.
Effects 2,4-D and carbon source on establishment of somatic embryogenic liquid suspension culture was investigated. […] At sucrose level ranging from 10-30 g/l, continued culture lead to maturation of the somatic embryo with no new initiation of secondary embryos (FIG. 5A). The somatic embryos thus produced share good synchrony and are excellent materials for re-induction of TIISEs (Refer to Example 13). […] The suspension cultures were stable for months if large embryos were removed. Further, sucrose concentration needs to be reduced below about 20 g/l (compare FIGS. 5B and 5C).

[3] = test system: Jatropha curcas zygotic embryo and endosperm explants; assay: Type I somatic embryo (TISE) formation on solid media with 2,4-D; conditions: for TISE (%) / TISE Count: 0.1 mg/l kinetin, 8 weeks
Experimental: Developing fruits were surfaced sterilized. The immature zygotic embryos and endosperms (En) were separated from each other using a surgical scalper blade. Zygotic embryos longer than 0.5 cm were further cut at the cotyledon-hypocotyl junction to produce explants of cotyledons only and hypocotyls with the root radicals. Zygotic embryos shorter than 0.5 cm were cultured intact as they are too fragile. We classified these explants as cotyledons (Cot); hypocotyls with root radicals (Rh); intact embryos (Eb) and endosperm (En).
The explants were cultured on a solid medium comprising MS salt, B5 vitamins and various concentrations of 2,4-D ranging from 0.1 to 20 mg/L. Kinetin was added at 0.1 mg/L in some of the treatments. Somatic embryos started to emerge without obvious sign of calli formation around 10th day, which predominantly formed on the edge of the endosperm tissues where the embryo had been detached. The somatic embryos most likely originated from the residual diploid cells of the zygotic embryo tissue attached on the endosperm. […] These somatic embryos developed speedily and predominantly matured as single embryo (FIG. 1). We called them Type I Somatic Embryo (TISE).

Question: How did the “TIISE (%)” value ([1]; 2,4-D 0.1 mg/L 4 weeks) turn out when `O=C(O)COc1ccc(Cl)cc1Cl` [2,4-D, 2,4-dichlorophenoxyacetic acid] was run?
Answer: 11%

Question: And the “TIISE Count” value ([1]; 2,4-D 0.1 mg/L 4 weeks, 19 explants)?
Answer: 2

Question: And the “TIISE (%)” value ([1]; 2,4-D 0.2 mg/L 4 weeks)?
Answer: 4%

Question: What about the “TIISE Count” value ([1]; 2,4-D 0.2 mg/L 4 weeks, 28 explants) of the same compound?
Answer: 1

Question: What about the “TIISE (%)” value ([1]; 2,4-D 0.5 mg/L 4 weeks) of the same compound?
Answer: 19%

Question: What about the “TIISE Count” value ([1]; 2,4-D 0.5 mg/L 4 weeks, 16 explants) of the same compound?
Answer: 3

Question: And the “TIISE (%)” value ([1]; 2,4-D 1 mg/L 4 weeks)?
Answer: 0%

Question: And the “TIISE Count” value ([1]; 2,4-D 1 mg/L 4 weeks, 19 explants)?
Answer: 0

Question: What about the “TIISE (%)” value ([1]; 2,4-D 2 mg/L 4 weeks) of the same compound?
Answer: 36%

Question: And the “TIISE Count” value ([1]; 2,4-D 2 mg/L 4 weeks, 25 explants)?
Answer: 9

Question: What about the “TIISE (%)” value ([1]; 2,4-D 5 mg/L 4 weeks) of the same compound?
Answer: 39%

Question: And the “TIISE Count” value ([1]; 2,4-D 5 mg/L 4 weeks, 23 explants)?
Answer: 9

Question: What about the “TIISE (%)” value ([1]; 2,4-D 10 mg/L 4 weeks) of the same compound?
Answer: 24%

Question: What about the “TIISE Count” value ([1]; 2,4-D 10 mg/L 4 weeks, 21 explants) of the same compound?
Answer: 5

Question: And the “TIISE (%)” value ([1]; 2,4-D 20 mg/L 4 weeks)?
Answer: 23%

Question: What about the “TIISE Count” value ([1]; 2,4-D 20 mg/L 4 weeks, 13 explants) of the same compound?
Answer: 3

Question: What about the “maturation of somatic embryos” value ([2]; 2,4-D 0.1-0.5 g/l) of the same compound?
Answer: significantly inhibited maturation of somatic embryos

Question: And the “calli multiplication and embryogenicity” value ([2]; 2,4-D higher than 0.5 g/l)?
Answer: calli multiplication and embryogenicity was poor

Question: And the “TISE (%)” value ([3]; 2,4-D 0.1 mg/L)?
Answer: 84%

Question: What about the “TISE Count” value ([3]; 2,4-D 0.1 mg/L, 19 explants) of the same compound?
Answer: 16

Question: And the “TISE (%)” value ([3]; 2,4-D 0.2 mg/L)?
Answer: 54%

Question: What about the “TISE Count” value ([3]; 2,4-D 0.2 mg/L, 28 explants) of the same compound?
Answer: 15

Question: And the “TISE (%)” value ([3]; 2,4-D 0.5 mg/L)?
Answer: 50%

Question: And the “TISE Count” value ([3]; 2,4-D 0.5 mg/L, 16 explants)?
Answer: 8

Question: What about the “TISE (%)” value ([3]; 2,4-D 1 mg/L) of the same compound?
Answer: 42%

Question: And the “TISE Count” value ([3]; 2,4-D 1 mg/L, 19 explants)?
Answer: 8

Question: And the “TISE (%)” value ([3]; 2,4-D 2 mg/L)?
Answer: 76%

Question: What about the “TISE Count” value ([3]; 2,4-D 2 mg/L, 25 explants) of the same compound?
Answer: 19

Question: What about the “TISE (%)” value ([3]; 2,4-D 5 mg/L) of the same compound?
Answer: 57%

Question: And the “TISE Count” value ([3]; 2,4-D 5 mg/L, 23 explants)?
Answer: 13

Question: What about the “TISE (%)” value ([3]; 2,4-D 10 mg/L) of the same compound?
Answer: 43%

Question: What about the “TISE Count” value ([3]; 2,4-D 10 mg/L, 21 explants) of the same compound?
Answer: 9

Question: What about the “TISE (%)” value ([3]; 2,4-D 20 mg/L) of the same compound?
Answer: 38%

Question: And the “TISE Count” value ([3]; 2,4-D 20 mg/L, 13 explants)?
Answer: 5

Question: What about the TISE formation ([3]; 2,4-D 0.1 to 20 mg/L) of the same compound?
Answer: appeared to be inhibitory at high levels
